According to patent US20190185865A1, “USE OF PROKARYOTIC TRANSCRIPTIONAL ACTIVATORS AS METABOLITE BIOSENSORS IN EUKARYOTIC CELLS” (Danmarks Tekniske Universitet, priority 2016, published 2019):

Columns and labels:
BenM = assay: CCM-induced GFP expression in yeast strains combining BenM expression cassettes and CYC1p reporter promoter variants (flow cytometry); format: cell-based, Saccharomyces cerevisiae; details: for FC (+/−CCM): 1.4 mM CCM, 24 h
Description: Strains, chemicals and media. Saccharomyces cerevisiae CEN.PK102-5B (MATa ura3-52 his3Δ1 leu2-3/112 MAL2-8^c SUC2), CEN.PK113-5A (MATa, trp1 his3Δ1 leu2-3/112 MAL2-8^c SUC2) and CEN.PK113-7D (wild type, MATa MAL2-8^c SUC2) strains were obtained from Peter Kotter (Johann Wolfgang Goethe-University Frankfurt, Germany). In principal any other yeast strains may be used, such as one obtained from public repository EuroScarf. EasyClone plasmids used in this work are described in Jensen, N. B. et al. EasyClone: method for iterative chromosomal integration of multiple genes in Saccharomyces cerevisiae. FEMS Yeast Res. 14, 238-48 (2014). Escherichia coli strain DH5a was used as a host for cloning and plasmid propagation. The chemicals and Pfu TURBO DNA polymerase were commercially obtained (Sigma-Aldrich and Agilent Technologies Inc., respectively). All acids used were >97% in purity. S. cerevisiae cells were grown at 30° C. in synthetic complete medium as well as drop-out media and agar plates were prepared using pre-mixed drop-out powders (Sigma-Aldrich). Mineral medium was freshly prepared as described previously. For all media containing diacids, 1.4 mM of the individual diacids were dissolved in mineral medium and pH adjusted to 4.5 before sterile filtration. For CCM several dilutions were made to examine the performance of the CCM biosensor. For naringenin, mineral medium was supplemented with 0, 0.05, 0.10 or 0.20 mM naringenin, dissolved in ethanol, the final ethanol concentration for each medium was 2% (v/v), and the final pH of the medium was adjusted to 6.0. E. coli cells were grown at 37° C. in Luria-Bertani (LB) medium supplemented with 100 μg/mL ampicillin.
Events were analyzed using FlowJo software (TreeStar Inc.).

S. cerevisiae cells = assay: Transport assay: uptake of CCM by yeast cells (LC-MS); format: cell-based, Saccharomyces cerevisiae; details: pH 4.5, 24 h
Method: Overnight grown CEN.PK113-5A cells were diluted (OD600=0.1) into SC-HIS-LEU medium with or without 1.4 mM (200 mg/L) CCM. Media samples were taken at both 0 h and 24 h, while samples for measuring cellular lysates (10^8 cells) were harvested at 24 h. For quantification of CCM by LC-MS, cultures were harvested by centrifugation. For extracellular CCM quantification the supernatant was centrifuged twice and filtered (0.2 μm) before analysis. For intracellular CCM quantification harvested pellets were washed twice in ice-cold isotonic saline solution (0.9% NaCl) and centrifuged at 5,000×g before cells were extracted in an aqueous 0.1% formic acid solution and sonicated for 15 min. Following this, samples were centrifuged at 13,000×g and supernatants filtered (0.2 μm) prior to analysis. LC-MS data was collected on EVOQ EliteTriple Quadrupole Mass Spectrometer system coupled with an Advance UHPLC (Bruker). Samples were held at 4° C. during the analysis. A 1 μL sample was injected onto a ACQUITY HSS T3 C18 UHPLC column (Waters), with a 1.8 μm particle size and 2.1×100 mm dimensioning. The column was held at a temperature of 30° C. […] Two transitions were chosen in negative Multiple Reaction Monitoring (MRM) mode for quantification of CCM: m/z 141.70-96.80 (quantification transition) and m/z 141.70-53.1 (confirmation transition). […]

[1] = strain MeLS0131, 491bp_CYC1p:GFP
[2] = strain MeLS0132, 272bp_CYC1p:GFP
[3] = strain MeLS0133, 249bp_CYC1p:GFP
[4] = strain MeLS0134, 209bp_CYC1p:GFP
[5] = strain MeLS0135, 491bp_CYC1p_BenO_T1:GFP
[6] = strain MeLS0136, 272bp_CYC1p_BenO_T1:GFP
[7] = strain MeLS0137, 249bp_CYC1p_BenO_T1:GFP
[8] = strain MeLS0138, 209bp_CYC1p_BenO_T1:GFP
[9] = strain MeLS0177, 491bp_CYC1p_BenO_T2:GFP
[10] = strain MeLS0178, 491bp_CYC1p_BenO_T1/T2:GFP
[11] = strain MeLS0180, 209bp_CYC1p_BenO_T2:GFP
[12] = strain MeLS0181, 209bp_CYC1p_BenO_T1/T2:GFP
[13] = strain MeLS0259, 272bp_CYC1p_BenO_T2:GFP
[14] = strain MeLS0260, 249bp_CYC1p_BenO_T2:GFP
[15] = strain MeLS0261, 272bp_CYC1p_BenO_T1/T2:GFP
[16] = strain MeLS0262, 249bp_CYC1p_BenO_T1/T2:GFP

With `O=C(O)/C=C\C=C/C(=O)O` [CCM, cis, cis-muconic acid] the “Mean fluorescense intensities of GFP (24 h), CCM (1.4 mM)” value (from here on “Mean fluorescense intensities of GFP”) (BenM; [1]) was 2899, the “FC (+/−CCM)” value (BenM; [1]) was 1.042 and the “Mean fluorescense intensities of GFP” value (BenM; [2]) was 211. The “FC (+/−CCM)” value (BenM; [2]) was 1.213, the “Mean fluorescense intensities of GFP” value (BenM; [3]) was 219 and the “FC (+/−CCM)” value (BenM; [3]) was 1.043. For the same compound, the “Mean fluorescense intensities of GFP” value (BenM; [4]) was 171, the “FC (+/−CCM)” value (BenM; [4]) was 1.13 and the “Mean fluorescense intensities of GFP” value (BenM; [5]) was 801. For the same compound, the “FC (+/−CCM)” value (BenM; [5]) was 1.062, the “Mean fluorescense intensities of GFP” value (BenM; [6]) was 160 and the “FC (+/−CCM)” value (BenM; [6]) was 1.032. The “Mean fluorescense intensities of GFP” value (BenM; [7]) was 180, the “FC (+/−CCM)” value (BenM; [7]) was 1.151 and the “Mean fluorescense intensities of GFP” value (BenM; [8]) was 167. For the same compound, the “FC (+/−CCM)” value (BenM; [8]) was 1.133, the “Mean fluorescense intensities of GFP” value (BenM; [9]) was 698 and the “FC (+/−CCM)” value (BenM; [9]) was 1.088. For the same compound, the “Mean fluorescense intensities of GFP” value (BenM; [10]) was 241, the “FC (+/−CCM)” value (BenM; [10]) was 0.9731 and the “Mean fluorescense intensities of GFP” value (BenM; [11]) was 165. For the same compound, the “FC (+/−CCM)” value (BenM; [11]) was 1.088, the “Mean fluorescense intensities of GFP” value (BenM; [12]) was 165 and the “FC (+/−CCM)” value (BenM; [12]) was 1.102. The “Mean fluorescense intensities of GFP” value (BenM; [13]) was 201, the “FC (+/−CCM)” value (BenM; [13]) was 1.002 and the “Mean fluorescense intensities of GFP” value (BenM; [14]) was 313. The “FC (+/−CCM)” value (BenM; [14]) was 0.909, the “Mean fluorescense intensities of GFP” value (BenM; [15]) was 257 and the “FC (+/−CCM)” value (BenM; [15]) was 0.7988. The “Mean fluorescense intensities of GFP” value (BenM; [16]) was 203, the “FC (+/−CCM)” value (BenM; [16]) was 1 and the “uptake of CCM by yeast” value (S. cerevisiae cells) was “directly taken up”.
